Results: EP0082731A1, “The use of peptides as medicaments” (NOVO INDUSTRI A/S, priority 1981, dated 1983)
Read-outs that look alike come from different tables or passages of the source.

Key:
[1] = tested on: isolated perfused rat pancreas; test: IRI (insulin) release from the isolated perfused rat pancreas
From the text: Such a use should be especially safe as no hypoglycaemia will occur during treatment because of the lack of IRI releasing effect in the presence of hypoglycaemia and normoglycaemia.
Furthermore, it is stated therein that compounds of formula I show no or minor, negligible metabolic effects. […] Based thereupon it is surprising that compounds of formula I have an insulin releasing effect on animals primed with glucose corresponding to hyperglycaemia.

[2] = tested on: pigs; test: Experiment C2: oral glucose tolerance test in pigs; type: in vivo; conditions: cross-over, glucose 5 g/kg perorally at 0 and 60 min, glucagon(1-21) 1 mg/kg/h i.v. 0-120 min
Method: The effect of glucagon(1-21) on plasma glucose levels was investigated during an oral glucose tolerance test in pigs. 4 pigs were dosed in a cross-over experiment with glucose (5 g/kg) perorally at 0 and 60 minutes + placebo (saline with HSA) or glucagon(1-21) (1 mg/kg/h) from 0 to 120 minutes intravenously. Blood samples were drawn from an ear vein at the times -5, 10, 20, 30, 45, 60, 75, 90, 105, and 120 minutes and plasma glucose was assayed by the hexokinase method. The plasma glucose values are stated in Table V below: […]

[3] = tested on: rats; test: Experiment B1: effect on blood glucose in rats in vivo, intravenous glucose infusion; set-up: species or system Wistar rats; conditions: for Blood glucose: rats, i.v. glucose 2 mg/min 0-30 min, then infusion of 1 mg glucagon(1-21) 30-60 min
Method: Blood samples were drawn from the carotid artery at the times 0, 2, 5, 10, 20, 25, 30, 40, 50, and 60 minutes and blood glucose values were determined by the hexokinase method on an autoanalyzer. The blood glucose values are stated in Table II below.

[4] = tested on: pigs; test: Experiment C1: effect on plasma glucose in pigs during intravenous glucose infusion; type: in vivo, pigs (Danish breed/Yorkshire); conditions: for Plasma glucose: pigs, cross-over, i.v. glucose 0.7 g/kg/h + glucagon(1-21) 100 µg/kg/h 0-120 min
Method: The effect of glucagon(1-21) on plasma glucose levels was investigated during an intravenous glucose infusion. 4 female pigs (Danish breed/Yorkshire) weighing 30 kg (+/- 3 kg) were dosed with glucose (0.7 g/kg/h) as an intravenous infusion and with the same glucose infusion + infusion of glucagon(-1-21) (100µg/kg/h) from 0 to 120 minutes. The experiment was carried out as a cross-over experiment. The pigs were infused through intravenous ear catheters and blood samples were taken from the other ear at the times 0, 15, 30, 45, 60, 75, 90, 105, and 120 minutes. Glucose was analyzed by the hexokinase method and the blood glucose values are stated in Table IV below.

[5] = tested on: rats; test: Metabolic effects after administration to normally fasted and fed rats in vivo
[6] = tested on: rat free fat cells; test: Lipolytic effect on rat free fat cells in vitro; type: cell-based; conditions: compared with glucagon
[7] = tested on: rats; test: Experiment A: effect on IRI-release in glucose-infused rats in vivo (RIA on plasma); set-up: species or system Wistar strain; conditions: anaesthetized rats, i.v. glucose 1.5 mg/min + glucagon(1-21) 100 µg/kg/h
Method: 10 male rats, Wistar strain, 150 g (+/- 5 g) were anaesthetized with Pentobarbital. Polyethylene catheters were inserted into the right carotid artery for blood sampling and the left jugular vein for infusions. The rats were divided into two groups with 5 animals in each group. One group was infused with glucose (1.5 mg/min) from 0 to 60 minutes (placebo) and one group was infused with glucose (1.5 mg/min) + glucagon(1-21) (100 µg/kg/h) from […]. Blood was sampled into glasses on ice containing heparin (250 IU/ml) and aprotinin (600 KIU/ml) at the times 0, 1, 10, 20, 30, 40, 50, and 60 minutes. Insulin was determined by radio- immuno assay (RIA) on plasma.

[8] = tested on: isolated perfused rat pancreas; conditions: buffer glucose concentration 1.0 mg/ml corresponding to normoglycaemia or below; statement of Danish patent application No. 2885/81; cited from earlier work
[9] = tested on: rats; test: Experiment B2: oral glucose tolerance test in rats; type: in vivo, Wistar rats; conditions: glucose 5 g/kg perorally at 0 and 60 min, glucagon(1-21) 1 mg/kg at 0, 30, 60, 90 min
Method: The effect of glucagon(1-21) was investigated in rats during an oral glucose tolerance test. 20 male Wistar rats were divided into 2 groups of 10 rats-and dosed as follows: Both groups were dosed with glucose (5 g/kg, perorally) at 0 and 60 minutes. The placebo group was dosed with 1 ml of 0.9% saline with 0.1% HSA intraperitoneally at the times 0, 30, 60, and 90 minutes. The other group was dosed with glucagon(1-21) (1 mg/kg) in 0.9% saline with HSA . at the times 0, 30, 60, and 90 minutes. Blood samples were drawn from the tails at the times -5, 0, 15, 30, 45, 60, 90, and 120 minutes for blood glucose determination. The blood glucose values are stated in Table III below.

[10] = tested on: NMRI mice; test: Experiment E: acute toxicity study; type: in vivo; conditions: 10 mg intravenously as a bolus, about 500 mg/kg body weight

**Q.** With “glucagon-(1-21)-heneicosapeptide (HSQGTFTSDYSKYLDSRRAQD; Glucagon; UniProt P01275 53-73, looked up, fragment) [glucagon(1-21)]” as the substance, how does the insulin releasing effect ([1]; at hyperglycaemia) read?
**A.** Its insulin releasing effect is “have this effect”.

**Q.** What about the insulin release ([1]; buffer glucose concentration 0.6 mg/ml corresponding to hypoglycaemia, infused to the same concentration as glucagon) of the same substance?
**A.** The insulin release was “no such effect”.

**Q.** What about the “IRI (immunoreactive insulin) releasing effect, as share of glucagon's” value ([1]; buffer glucose concentration 1.5 mg/ml corresponding to mild hyperglycaemia) of the same substance?
**A.** The value was “about 60%”.

**Q.** And the “IRI (immunoreactive insulin) releasing effect, as share of glucagon's” value ([1]; buffer glucose concentration 2.0 mg/ml corresponding to hyperglycaemia)?
**A.** The value was “about 85%”.

**Q.** And the Plasma glucose ([2]; time 10 min)?
**A.** The Plasma glucose was 1.0 mg/mL.

**Q.** What about the Plasma glucose ([2]; time 20 min) of the same substance?
**A.** Its Plasma glucose is 1.4 mg/mL.

**Q.** What about the Plasma glucose ([2]; time 30 min) of the same substance?
**A.** The Plasma glucose was 1.7 mg/mL.

**Q.** What about the Plasma glucose ([2]; time 45 min) of the same substance?
**A.** The Plasma glucose was 1.8 mg/mL.

**Q.** What about the Plasma glucose ([2]; time 60 min) of the same substance?
**A.** The Plasma glucose was 1.9 mg/mL.

**Q.** What about the Plasma glucose ([2]; time 75 min) of the same substance?
**A.** Its Plasma glucose is 1.8 mg/mL.

**Q.** And the Plasma glucose ([2]; time 90 min)?
**A.** The Plasma glucose was 1.7 mg/mL.

**Q.** What about the Plasma glucose ([2]; time 105 min) of the same substance?
**A.** The Plasma glucose was 1.7 mg/mL.

**Q.** What about the Plasma glucose ([2]; time 120 min) of the same substance?
**A.** Its Plasma glucose is 2.1 mg/mL.

**Q.** What about the Plasma glucose ([2]; time -5 min) of the same substance?
**A.** The Plasma glucose was 0.8 mg/mL.

**Q.** And the glucose tolerance ([3]; glucose primed rats, infused intravenously)?
**A.** Its glucose tolerance is “improves the glucose tolerance”.

**Q.** What about the Blood glucose ([3]; time 0 min) of the same substance?
**A.** The Blood glucose was 1.0 mg/mL.

**Q.** And the Blood glucose ([3]; time 2 min)?
**A.** Its Blood glucose is 1.2 mg/mL.

**Q.** What about the Blood glucose ([3]; time 5 min) of the same substance?
**A.** The Blood glucose was 1.4 mg/mL.

**Q.** And the Blood glucose ([3]; time 10 min)?
**A.** Its Blood glucose is 1.5 mg/mL.

**Q.** What about the Blood glucose ([3]; time 20 min) of the same substance?
**A.** Its Blood glucose is 1.7 mg/mL.

**Q.** And the Blood glucose ([3]; time 25 min)?
**A.** Its Blood glucose is 1.9 mg/mL.

**Q.** And the Blood glucose ([3]; time 30 min)?
**A.** Its Blood glucose is 1.9 mg/mL.

**Q.** What about the Blood glucose ([3]; time 40 min) of the same substance?
**A.** The Blood glucose was 1.3 mg/mL.

**Q.** And the Blood glucose ([3]; time 50 min)?
**A.** The Blood glucose was 1.0 mg/mL.

**Q.** What about the Blood glucose ([3]; time 60 min) of the same substance?
**A.** The Blood glucose was 0.8 mg/mL.

**Q.** And the glucose tolerance ([4]; glucose primed pigs, infused intravenously)?
**A.** Its glucose tolerance is “improves the glucose tolerance”.

**Q.** What about the Plasma glucose ([4]; time 0 min) of the same substance?
**A.** The Plasma glucose was 0.9 mg/mL.

**Q.** And the Plasma glucose ([4]; time 15 min)?
**A.** Its Plasma glucose is 1.5 mg/mL.

**Q.** And the Plasma glucose ([4]; time 30 min)?
**A.** The Plasma glucose was 1.7 mg/mL.

**Q.** And the Plasma glucose ([4]; time 45 min)?
**A.** Its Plasma glucose is 1.8 mg/mL.

**Q.** And the Plasma glucose ([4]; time 60 min)?
**A.** Its Plasma glucose is 1.9 mg/mL.

**Q.** And the Plasma glucose ([4]; time 75 min)?
**A.** Its Plasma glucose is 1.8 mg/mL.

**Q.** And the Plasma glucose ([4]; time 90 min)?
**A.** Its Plasma glucose is 2.0 mg/mL.

**Q.** And the Plasma glucose ([4]; time 105 min)?
**A.** The Plasma glucose was 1.9 mg/mL.

**Q.** And the Plasma glucose ([4]; time 120 min)?
**A.** The Plasma glucose was 1.9 mg/mL.

**Q.** What about the metabolic effects [5] of the same substance?
**A.** The metabolic effects was “No metabolic effects have been found”.

**Q.** And the lipolytic effect [6]?
**A.** Its lipolytic effect is “negligible”.

**Q.** And the IRI ([7]; time 0 min)?
**A.** The IRI was 18 µU/ml.

**Q.** And the IRI ([7]; time 1 min)?
**A.** Its IRI is 43 µU/ml.

**Q.** What about the IRI ([7]; time 10 min) of the same substance?
**A.** The IRI was 48 µU/ml.

**Q.** What about the IRI ([7]; time 20 min) of the same substance?
**A.** The IRI was 62 µU/ml.

**Q.** What about the IRI ([7]; time 30 min) of the same substance?
**A.** Its IRI is 56 µU/ml.

**Q.** What about the IRI ([7]; time 40 min) of the same substance?
**A.** The IRI was 56 µU/ml.

**Q.** What about the IRI ([7]; time 50 min) of the same substance?
**A.** The IRI was 60 µU/ml.

**Q.** What about the IRI ([7]; time 60 min) of the same substance?
**A.** Its IRI is 55 µU/ml.

**Q.** And the insulin release [8]?
**A.** Its insulin release is “does not release insulin”.

**Q.** And the Blood glucose ([9]; time 0 min)?
**A.** Its Blood glucose is 0.96 mg/mL.

**Q.** What about the Blood glucose ([9]; time 15 min) of the same substance?
**A.** The Blood glucose was 1.32 mg/mL.

**Q.** And the Blood glucose ([9]; time 30 min)?
**A.** The Blood glucose was 1.35 mg/mL.

**Q.** And the Blood glucose ([9]; time 45 min)?
**A.** Its Blood glucose is 1.23 mg/mL.

**Q.** And the Blood glucose ([9]; time 60 min)?
**A.** Its Blood glucose is 1.36 mg/mL.

**Q.** What about the Blood glucose ([9]; time 90 min) of the same substance?
**A.** The Blood glucose was 1.37 mg/mL.

**Q.** What about the Blood glucose ([9]; time 120 min) of the same substance?
**A.** The Blood glucose was 1.37 mg/mL.

**Q.** And the Blood glucose ([9]; time -5 min)?
**A.** The Blood glucose was 0.89 mg/mL.

**Q.** What about the adverse effects [10] of the same substance?
**A.** Its adverse effects is “no adverse effects”.

**Q.** What about the deaths [10] of the same substance?
**A.** The deaths was “No deaths occurred”.
